# Experimental data as given in US10577383B2, “Macrocyclic inhibitors of myeloperoxidase” (BRISTOL-MYERS SQUIBB COMPANY, priority 2016, dated 2020).
# Read-outs that look alike come from different tables or passages of the source.
# Columns and labels:
# myeloperoxidase [1] = biological target: T1, myeloperoxidase (Homo sapiens (Human), UniProt P05164); assay: MPO Peroxidation Assay (Amplex Red Assay); format: biochemical; conditions: MPO peroxidation activity, 100 mM KPi (pH 7.4), ten minute preincubation; potency ranges defined in nM
# T1 sequence (P05164 49-745): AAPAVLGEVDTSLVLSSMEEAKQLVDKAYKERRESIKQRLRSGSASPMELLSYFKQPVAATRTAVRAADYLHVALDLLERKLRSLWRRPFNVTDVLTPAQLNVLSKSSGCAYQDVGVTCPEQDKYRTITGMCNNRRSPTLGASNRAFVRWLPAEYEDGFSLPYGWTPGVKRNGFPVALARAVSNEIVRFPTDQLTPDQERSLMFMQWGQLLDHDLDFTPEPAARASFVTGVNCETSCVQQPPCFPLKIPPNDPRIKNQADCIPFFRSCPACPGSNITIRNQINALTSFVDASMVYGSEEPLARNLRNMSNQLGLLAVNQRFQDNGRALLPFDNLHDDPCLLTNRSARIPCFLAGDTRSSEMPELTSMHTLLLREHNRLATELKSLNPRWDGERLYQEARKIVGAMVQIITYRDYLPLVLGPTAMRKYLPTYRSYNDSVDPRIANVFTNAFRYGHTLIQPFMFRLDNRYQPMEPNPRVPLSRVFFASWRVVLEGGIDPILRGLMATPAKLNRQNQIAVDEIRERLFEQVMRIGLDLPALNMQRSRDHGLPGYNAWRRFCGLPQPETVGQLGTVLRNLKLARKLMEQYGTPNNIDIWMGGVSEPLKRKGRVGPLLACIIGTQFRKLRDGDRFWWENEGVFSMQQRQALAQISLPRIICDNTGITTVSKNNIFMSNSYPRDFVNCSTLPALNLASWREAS
# Experimental: MPO Peroxidation Assay (Amplex Red Assay)
# MPO peroxidation activity was measured in 100 mM KPi (pH 7.4) by utilizing the non-fluorescent reagent Amplex Red (Invitrogen Cat. #A12222) which can be oxidized to the highly fluorescent resorufin. Amplex Red is oxidized by the peroxidase action of MPO to resorufin. Reactions were carried out in 50 μL total volume by adding a 25 μL mixture of 200 pM myeloperoxidase and 40 nM H2O2 (Sigma #349887) to 100 nL inhibitor in 100% DMSO in a 384 well Perkin Elmer Optiplate. Enzyme and compound were preincubated for ten minutes at room temperature.
# After the ten minute preincubation, 25 μL of an Amplex Red mixture containing 200 μM Amplex Red and 10 mM H2O2 was added to the plate. Kinetic determinations were carried out immediately on a Perkin Elmer Envision (15 minute kinetic read, Ex: 535 nm, Em: 590 nm).
# (§1) IC50 values were calculated by determining the slope of the linear portion of the kinetic trace (180-540 secs), and using that calculated slope to determine % inhibition occurring at each concentration of inhibitor using the following equation:
# (§2) [formula] where A=minimal Y value (activity level of inhibited sample), B=maximal Y value (activity level of uninhibited sample), C=Log IC50, D=Hill Slope, x=concentration of inhibitor. MPO Chlorination Assay (APF Assay) MPO chlorination activity was measured in 100 mM KPi (pH 7.4) by utilizing the non-fluorescent reagent Aminophenyl fluorescein (APF, Invitrogen Cat. #A36003). APF is cleaved by (—OCl) to yield the fluorescent compound fluorescein. Reactions were carried out in 50 μL total volume by adding a 25 μL mixture of 200 pM myeloperoxidase and 120 mM NaCl to 100 nL inhibitor in 100% DMSO in a 384 well, non-binding surface clear bottom plate (Corning #3655). Enzyme, inhibitor, and chloride were preincubated for ten minutes at room temperature.
# myeloperoxidase [2] = biological target: T1, myeloperoxidase; assay: MPO Chlorination Assay (APF Assay); format: biochemical; conditions: MPO chlorination activity, 100 mM KPi (pH 7.4), 120 mM NaCl, ten minute preincubation; potency ranges defined in nM
# Experimental: as §2
# After the ten minute preincubation, 25 μL of an APF mixture containing […], 120 mM NaCl and 10 μM H2O2 was added to the plate using the internal dispensing system of a Hammatsu FDSS 6000. Kinetic determinations were carried out immediately on the FDSS 6000 (3 minute kinetic read, 1 read every second, ex: 485 nm, em: 535 nm). IC50 values for inhibitors were calculated by taking the slope of the linear portion of the kinetic measurement (20 seconds to 80-120 secs).
# as §1
# [formula] where A=minimal Y value (activity level of inhibited sample), B=maximal Y value (activity level of uninhibited sample), C=Log IC50, D=Hill Slope, x=concentration of inhibitor. EPX Bromination Assay
Compound,IC50 (myeloperoxidase [1]),IC50 (myeloperoxidase [2]),other results
CC(C)(C)OC(=O)N(C/C=C(\I)c1cc(NC(c2ccccc2)(c2ccccc2)c2ccccc2)nc2c1nnn2C(c1ccccc1)(c1ccccc1)c1ccccc1)CC(=O)N(CCc1ccccc1)Cc1cccc(Cn2cc(B3OC(C)(C)C(C)(C)O3)cn2)c1,,,"ring closure, isolated yield (the molecule shown is the open-chain precursor, cc_pd bond, 15-membered ring, PdCl2(dppf)-CH2Cl2/K2CO3, dioxane/H2O, 1.07 mM, 85.0 °C): 42%"
CC(C)(C)OC(=O)N(C/C=C(\I)c1cc(NC(c2ccccc2)(c2ccccc2)c2ccccc2)nc2c1nnn2C(c1ccccc1)(c1ccccc1)c1ccccc1)CCCOc1cccc(Cn2cc(B3OC(C)(C)C(C)(C)O3)cn2)c1,,,"ring closure, isolated yield (the molecule shown is the open-chain precursor, cc_pd bond, 15-membered ring, PdCl2(dppf)-CH2Cl2/K2CO3, dioxane/H2O, 1.04 mM, 85.0 °C): 39.1%"
CC(C)(C)OC(=O)N(C/C=C(\I)c1cc(NC(c2ccccc2)(c2ccccc2)c2ccccc2)nc2c1nnn2C(c1ccccc1)(c1ccccc1)c1ccccc1)[C@H]1C[C@H](Cc2ccccc2)[C@H](Oc2cccc(Cn3cc(B4OC(C)(C)C(C)(C)O4)cn3)c2)C1,,,"ring closure, isolated yield (the molecule shown is the open-chain precursor, cc_pd bond, 15-membered ring, PdCl2(dppf)-CH2Cl2/K2CO3, dioxane/H2O, 1.0 mM, 85.0 °C): 45%"
CC(C)(C)OC(=O)N1CC=C(c2cc(N)nc3[nH]nnc23)c2cnn(c2)Cc2cccc(c2)O[C@@H]2CC13CCC2(c1ccccc1)CC3,,,"ring closure, isolated yield (from CC(C)(C)OC(=O)N(C/C=C(\c1cnn(Cc2cccc(O)c2)c1)c1cc(N)nc2[nH]nnc12)C12CCC(c3ccccc3)(CC1)[C@@H](O)C2, ether bond, 15-membered ring, cyanomethylenetributylphosphorane, toluene, 5.0 mM, 100.0 °C): 85%"
CC1(C)OB(c2cnn(Cc3cccc(Oc4cccc(CCNC/C=C(\I)c5cc(NC(c6ccccc6)(c6ccccc6)c6ccccc6)nc6c5nnn6C(c5ccccc5)(c5ccccc5)c5ccccc5)c4)c3)c2)OC1(C)C,,,"ring closure, isolated yield (the molecule shown is the open-chain precursor, cc_pd bond, 17-membered ring, PdCl2(dppf)-CH2Cl2/K2CO3, dioxane/H2O, 2.45 mM, 85.0 °C): 35.1%"
C[C@@H](Cc1cccc(Oc2cccc(Cn3cc(B4OC(C)(C)C(C)(C)O4)cn3)c2)c1)N(C/C=C(\I)c1cc(NC(c2ccccc2)(c2ccccc2)c2ccccc2)nc2c1nnn2C(c1ccccc1)(c1ccccc1)c1ccccc1)C(=O)OC(C)(C)C,,,"ring closure, isolated yield (the molecule shown is the open-chain precursor, cc_pd bond, 17-membered ring, PdCl2(dppf)-CH2Cl2/K2CO3, dioxane/H2O, 1.28 mM, 85.0 °C): 36%"
c1ccc(C(Nc2cc(C3CCNCc4cccc(c4)COc4cccc(c4)Cn4cc3cn4)c3nnn(C(c4ccccc4)(c4ccccc4)c4ccccc4)c3n2)(c2ccccc2)c2ccccc2)cc1 (stereo not drawn),,,"ring closure, isolated yield (from OCc1cccc(CNCCC(c2cnn(Cc3cccc(O)c3)c2)c2cc(NC(c3ccccc3)(c3ccccc3)c3ccccc3)nc3c2nnn3C(c2ccccc2)(c2ccccc2)c2ccccc2)c1, ether bond, 17-membered ring, PPh3/DIAD, THF): 94%"
"Nc1cc([C@@H]2CCN[C@H]3C[C@H](Cc4ccccc4)[C@@H](C3)Oc3cccc(c3)Cn3cc2cn3)c2nn[nH]c2n1 [Example 25, 7-[(3R,4S,6S,10S)-4-Benzyl-2-oxa-7,13,14-triazatetracyclo[14.3.1.1^3,^6.1^11,^1^4]docosa-1(19),11(21),12,16(20),17-pentaen-10-yl]-3H-[1,2,3]triazolo[4,5-b]pyridin-5-amine]",1 to 100 nM,1 to 100 nM,
"Nc1cc(C2CCNC34CCC(c5ccccc5)(CC3)[C@H](C4)Oc3cccc(c3)Cn3cc2cn3)c2nn[nH]c2n1 (stereo partly drawn) [Example 27, 7-[(17S)-18-Phenyl-16-oxa-2,8,9-triazapentacyclo[16.2.2.1^1,^1^7.1^6,^9.1^11,^1^5]pentacosa-6(25),7,11(24),12,14-pentaen-5-yl]-3H-[1,2,3]triazolo[4,5-b]pyridin-5-amine]",1 to 100 nM,1 to 100 nM,
"Nc1cc(C2CCNC34CCC(c5ccccc5)(CC3)[C@@H](C4)Oc3cccc(c3)Cn3cc2cn3)c2nn[nH]c2n1 (stereo partly drawn) [Example 28, 7-[(17R)-18-Phenyl-16-oxa-2,8,9-triazapentacyclo[16.2.2.1^1,^1^7.1^6,^9.1^11,^1^5]pentacosa-6(25),7,11(24),12,14-pentaen-5-yl]-3H-[1,2,3]triazolo[4,5-b]pyridin-5-amine]",1000 to 10000 nM,1 to 100 nM,
"Nc1cc(C2CCNC34CCC(c5ccccc5)(CC3)[C@H](C4)Oc3cccc(c3)CCn3cc2cn3)c2nn[nH]c2n1 (stereo partly drawn) [Example 29, 7-[(18S)-19-Phenyl-17-oxa-2,8,9-triazapentacyclo[17.2.2.1^1,^1^8.1^6,^9.1^12,^1^6]hexacosa-6(26),7,12(25),13,15-pentaen-5-yl]-3H-[1,2,3]triazolo[4,5-b]pyridin-5-amine]",1 to 100 nM,1 to 100 nM,
"Nc1cc(C2CCN[C@H]3CC[C@@H](COc4cccc(c4)Cn4cc2cn4)C3)c2nn[nH]c2n1 (stereo partly drawn) [Example 32, 7-[(11S,14R)-16-Oxa-3,4,10-triazatetracyclo[15.3.1.1^3,^6.1^11,^1^4]tricosa-1(21),4,6(23),17,19-pentaen-7-yl]-3H-[1,2,3]triazolo[4,5-b]pyridin-5-amine]",101 to 999 nM,1 to 100 nM,

# Now from value to compound, other results behind:
IC50 (myeloperoxidase [1]),IC50 (myeloperoxidase [2]),Compound,other results
1 to 100 nM,1 to 100 nM,"Nc1cc([C@H]2CCN[C@H]3C[C@H](Cc4ccccc4)[C@@H](C3)Oc3cccc(c3)Cn3cc2cn3)c2nn[nH]c2n1 [Example 26, 7-[(3R,4S,6S,10R)-4-Benzyl-2-oxa-7,13,14-triazatetracyclo[14.3.1.1^3,^6.1^11,^1^4]docosa-1(19),11(21),12,16(20),17-pentaen-10-yl]-3H-[1,2,3]triazolo[4,5-b]pyridin-5-amine]",
101 to 999 nM,1 to 100 nM,"Nc1cc(C2CCNCCc3cccc(c3)-c3cccc(c3)Cn3cc2cn3)c2nn[nH]c2n1 (stereo not drawn) [Example 30, 7-{8,9,15-triazatetracyclo[16.3.1.1^2,^6.1^8,^11]tetracosa-1(22),2,4,6(24),9,11(23),18,20-octaen-12-yl}-3H-[1,2,3]triazolo[4,5-b]pyridin-5-amine]",
101 to 999 nM,1 to 100 nM,"Nc1cc(C2CCN3C[C@H](Cc4ccccc4)[C@@H](C3)Oc3cccc(c3)Cn3cc2cn3)c2nn[nH]c2n1 (stereo partly drawn) [Example 31, 7-[(3S,4S)-4-Benzyl-2-oxa-6,12,13-triazatetracyclo[13.3.1.1^3,^6.1^1^0,^13]henicosa-1(18),10(20),11,15(19),16-pentaen-9-yl]-3H-[1,2,3]triazolo[4,5-b]pyridin-5-amine]",
101 to 999 nM,1 to 100 nM,"Nc1cc(C2CCNCC(=O)N(CCc3ccccc3)Cc3cccc(c3)Cn3cc2cn3)c2nn[nH]c2n1 (stereo not drawn) [Example 33, 7-{5-Amino-3H-[1,2,3]triazolo[4,5-b]pyridin-7-yl}-13-(2-phenylethyl)-3,4,10,13-tetraazatricyclo[13.3.1.1^3,^6]icosa-1(19),4,6(20),15,17-pentaen-12-one]",
1000 to 10000 nM,101 to 999 nM,"Nc1cc(C2CCN3C[C@H](COc4cccc(c4)Cn4cc2cn4)[C@@H](c2ccccc2)C3)c2nn[nH]c2n1 (stereo partly drawn) [Example 34, 7-[(12S,13R)-12-Phenyl-15-oxa-3,4,10-triazatetracyclo[14.3.1.1^3,^6.1^1^0,^13]docosa-1(20),4,6(22),16,18-pentaen-7-yl]-3H-[1,2,3]triazolo[4,5-b]pyridin-5-amine]",
1000 to 10000 nM,1000 to 10000 nM,"NC(=O)CN1CCc2cccc(c2)Oc2cccc(c2)Cn2cc(cn2)C(c2cc(N)nc3[nH]nnc23)CC1 (stereo not drawn) [Example 35, 2-(7-{15-Amino-3H-[1,2,3]triazolo[4,5-b]pyridin-7-yl}-18-oxa-3,4,10-triazatetracyclo[17.3.1.1^3,^6.1^13,^17]pentacosa-1(23),4,6(25),13,15,17(24),19,21-octaen-10-yl)acetamide]",
1000 to 10000 nM,1 to 100 nM,"Nc1cc(C2CCNCC(F)(F)c3cccc(c3)Oc3cccc(c3)Cn3cc2cn3)c2nn[nH]c2n1 (stereo not drawn) [Example 36, 7-{12,12-Difluoro-18-oxa-3,4,10-triazatetracyclo[17.3.1.1^3,^6.1^13,^1^7]pentacosa-1(23),4,6(25),13,15,17(24),19,21-octaen-7-yl}-3H-[1,2,3]triazolo[4,5-b]pyridin-5-amine]",
1000 to 10000 nM,101 to 999 nM,"COCCN1CCc2cccc(c2)Oc2cccc(c2)Cn2cc(cn2)C(c2cc(N)nc3[nH]nnc23)CC1 (stereo not drawn) [Example 37, 7-[10-(2-Methoxyethyl)-18-oxa-3,4,10-triazatetracyclo[17.3.1.1^3,^6.1^13,^1^7]pentacosa-1(23),4,6(25),13,15,17(24),19,21-octaen-7-yl]-3H-[1,2,3]triazolo[4,5-b]pyridin-5-amine]",
